# Read-outs that look alike come from different tables or passages of the source.
# System: Calu3 cells infected with SARS-CoV-2
# Assay type: cell-based, human
# [1] = Calu3 cells, SARS-CoV-2 0.1 MOI 2 h, then drug 48 h, vs untreated infected cells
Compound,MUC1 mRNA expression,MUC4 mRNA expression,MUC5AC mRNA expression,MUC5B mRNA expression,MUC13 mRNA expression,MUC21 mRNA expression,"mucin hypersecretion (mucins of the signature: MUC13, MUC21, MUC16 and MUC1) (concluding remark on the Calu3 drug screen)",MUC1 mRNA expression [1],MUC4 mRNA expression [1],MUC21 mRNA expression [1]
NC(=O)c1nc(F)c[nH]c1=O [favipiravir],increase,decrease,decrease,decrease,decrease,decrease,suppress mucin hypersecretion,–,–,–
Tocilizumab [toculizumab],–,–,–,–,–,–,–,significantly reduce,significantly reduce,significantly reduce
